This note sets out measurements from patent US10975114B2, “Bis 2′-5′-RR-(3′F-A)(3′F-A) cyclic dinucleotide compound and uses thereof” (ADURO BIOTECH, INC., priority 2017, dated 2021).

Test [1] deals with T1, hSTING WT (Homo sapiens, UniProt Q86WV6, H232R).
T1 construct: made in house; host or cells: BL21 Rosetta 2 (DE3) E. coli
Briefly: ITC binding assay, hSTING WT. The following applies: 25° C., protein 0.1 mM, ligand 0.35 mM. The method, then:
(§1) The WT and REF proteins were similarly prepared for use in an ITC binding assay. Expression plasmids were transformed into BL21 Rosetta 2 (DE3) (EMD Millipore) E. coli cells for protein expression. 50 ml starter cultures were grown overnight in 2×YT supplemented with 50 μg/ml kanamycin and 30 μg/ml chloramphenicol. Multi-liter large scale cultures of the same growth media as the starter were inoculated at a ratio of 1:1,000 (V/V) and allowed to grow at 37° C. to an optical density of 0.6, cultures were then shifted to 18° C. Protein expression was induced by the addition of isopropyl β-D-1-thiogalactopyranoside to a final concentration of 0.3 mM. Protein expression was allowed to proceed for 18-24 hrs. Pelleted cells were resuspended in 50 mM Tris pH 7.5, 500 mM NaCl, 10% glycerol, 20 mM imidazole, 1 mM TCEP and complete protease inhibitor cocktail (Sigma). Cells were lysed by sonication (Branson) and insoluble material was removed by centrifugation. Proteins were purified on Ni-NTA resin and concentrated to >10 mg/ml. 6×H-SUMO-STING LBD was further purified by gel filtration chromatography using a High Load 26/600 Superdex 75 column (GE Healthcare) in a buffer of 20 mM Tris pH 7.5, 150 mM NaCl, 5% glycerol and 1 mM TCEP. Peak fractions were concentrated to between 10-15 mg/ml via ultrafiltration aliquoted and flash frozen in liquid nitrogen and stored at […]
The resulting amino acid sequence for the STING WT allele is as follows: • Allele Name: WT • Amino Acid Sequence:
(§2) Proteins were dialyzed overnight in 20 mM HEPES pH 7.5, 150 mM NaCl. Insoluble material was removed by centrifugation at 31,000×g. The invention compound 2′2′-RR-(3′F-A)(3′F-A) and comparison STING agonists 3′3′-RR-(2′F-A)(2′F-A); 2′3′-RR-(3′F-A)(2′F-A) were resuspended in dialysis buffer. The concentration of both the protein and ligands were checked by spectroscopy and adjusted if necessary.
(§3) STING protein was added to the ITC sample cell at a final concentration of 0.1 mM. The CDN ligand was at a final concentration of 0.35 mM in the syringe. […]

In test [2] the target is T2, hSTING REF allele (Homo sapiens, UniProt Q86WV6).
T2 construct: made in house; host or cells: BL21 Rosetta 2 (DE3) E. coli
Put plainly: ITC binding assay, hSTING REF allele. The following applies: 25° C., protein 0.1 mM, ligand 0.35 mM. The method, then: as §1
The resulting amino acid sequences for the STING REF allele is as follows: • Allele Name: REF • Amino Acid Sequence:
as §2, §3

Test [3] relates to 4T1 mammary carcinoma. Briefly: Tumor-specific T cells in blood of 4T1 mice (AH1 tetramer flow cytometry). It counts as in vivo, BALB/c mice. The settings on record: day 7 post IT injection, 0.1, 1 and 10 μg IT doses, compared to HBSS. As to the method: To assess the ability of 2′2′-RR-(3′F-A)(3′F-A) to promote anti-tumor immunity in a murine tumor model, 6-8 week old female BALB/c mice (n=8/group) were implanted in both the left and the right flanks with 4T1 mammary carcinoma cells (2×10^5 cells in 100 μL PBS). Mice were treated with 2′2′-RR-(3′F-A)(3′F-A) at 0.1, 1, 10 and 100 μg in a total volume of 40 μL HBSS and compared to Hank's Balanced Salt Solution (HBSS) vehicle control. Compound was administered when tumors reached a volume of approximately 40-50 mm^3 on day 8 post tumor implantation (indicated by dotted line on the x-axis in tumor growth graphs). The compound was administered by a single […] injection into the center of the tumor (intratumoral, IT) using a 27 gauge needle. Tumors were measured twice weekly.
Lympholyte (Cedarlane) gradient-purified PBMCs (˜1×10^6) were pre-incubated with anti-CD16/32 monoclonal antibody to block potential non-specific binding and labeled with murine T-Select H-2L^d MuLV gp70 Tetramer-[…]-PE (SEQ ID NO: 20, AH1 peptide with PE fluorescent label, MBL), anti-CD4-BUV737 (RMA4-5), anti-CD8α-BUV395 (53-6.7) (BD Biosciences); anti-CD90.2 BV510 (30-H12) (BioLegend) and the Fixable LIVE/DEAD Near-IR viability dye (ThermoFisher). Data were acquired using a LSRFortessa X-20 cytometer with FACSDiva software (BD) and analyzed with FlowJo software (Tree Star).

Test [4] deals with 4T1 mammary carcinoma. Put plainly: 4T1 mammary carcinoma dual-flank model, combination with anti-PD-1 antibody. In kind it is in vivo, BALB/c mice. As to the method: To assess the ability of 2′2′-RR-(3′F-A)(3′F-A) to promote anti-tumor immunity in murine tumor models in combination with an antagonistic anti-PD-1 antibody, 6-8 week old female BALB/c mice (n=8/group) were implanted in both the left and the right flanks with 4T1 mammary carcinoma cells (2×10^5 cells in 100 aL PBS, day 0). Mice were treated with vehicle alone or 1 μg 2′2′-RR-(3′F-A)(3′F-A) in a total volume of 40 aL HBSS by IT injection using a 27 gauge needle when tumors reached a volume of approximately 40-50 mm^3 on day 8 post tumor implantation (indicated by dotted line on the x-axis in tumor growth graphs). Mice were given intraperitoneal (IP) injections of 200 μg control IgG or anti-PD-1 (clone RMP1-14, BioXCell) beginning on the day of 2′2′-RR-(3′F-A)(3′F-A) treatment and then continuing twice per week throughout the duration of the experiment. Some mice were given IP injection of 100 μg anti-CD8 (clone 2.43, BioXCell) on study days 6, 8, 10, 14, and 17 to deplete CD8^+ T cells. Tumors were measured twice weekly.

[5] abbreviates: 1 μg IT combined with anti-PD-1 antibody 200 μg IP twice per week.

The structures appear in SMILES notation.

In general, Kd refers to the constant that tells how readily two partners part at equilibrium. Higher therefore signals weaker binding. As to `Nc1ncnc2c1ncn2[C@@H]1O[C@@H]2CO[P@@](=O)(S)O[C@@H]3[C@H](F)[C@@H](CO[P@@](=O)(S)O[C@@H]1[C@@H]2F)O[C@H]3n1cnc2c(N)ncnc21` [2′2′-RR-(3′F-A)(3′F-A), (1S,3R,6R,8R,9S,11R,14R,16R,17R,18R)-8,16-bis(6-amino-9H-purin-9-yl)-17,18-difluoro-3,11-dimercapto-2,4,7,10,12,15-hexaoxa-3,11-diphosphatricyclo[12.2.1.1^6,9]octadecane 3,11-dioxide], the affinity in test [1], expressed as Kd, was 0.098 µM. In test [2], this compound had a Kd of 0.17 µM. In addition, in test [3], the “frequency of tumor-specific systemic T cells” value is listed as “significantly higher frequency”. For the same compound, in test [4] (1 μg IT + control IgG), the “cures, injected tumor” value amounted to 25% and the “cures, non-injected tumor” value turned out to be 0%. Moreover, in test [4] (setting [5]), the “cures, distal (non-injected) tumor” value turned out to be 62.5% and the “cures, primary (injected) tumor” value was found to be 87.5%.
